One assay addresses C. albicans LS (CaLS). Conditions: read-out: Dissociation constant Kd; cited from earlier work.
Assay [1] has as its target LS from M. tuberculosis (MtLS). Conditions: read-out: Dissociation constant Kd; cited from earlier work.
The target of assay [2] is T1, B. anthracis lumazine synthase (BaLS) (Bacillus anthracis, UniProt Q81MB5). In words: biochemical. Conditions: for Binding enthalpy ΔH / Free energy of binding ΔG / No. of sites n / TΔS: pH 7. In kind it is binding.
The target of assay [3] is T1, B. anthracis lumazine synthase (BaLS). In words: biochemical. As to conditions: for Mechanism: pH 7.

T1 sequence (Q81MB5 whole entry, looked up): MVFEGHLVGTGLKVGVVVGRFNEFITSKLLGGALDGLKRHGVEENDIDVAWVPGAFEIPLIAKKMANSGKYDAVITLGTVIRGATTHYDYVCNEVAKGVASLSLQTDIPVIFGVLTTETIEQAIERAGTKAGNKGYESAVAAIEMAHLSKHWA

Regarding `O=c1[nH]c(Cl)c(CCCCOP(=O)(O)O)c(=O)[nH]1` [JC33, 4-(6-Chloro-2,4-dioxo-1,2,3,4-tetrahydropyrimidine-5-yl)-n-butyl 1-phosphate], the equilibrium dissociation constant (Kd) on C. albicans LS (CaLS) was 150 ± 40 nM. The Kd in assay [1] was 720 ± 20 nM. In assay [2], the Kd was 1750 ± 40 nM, the “Binding enthalpy ΔH” value is -7.50 ± 0.07 kcal/mol, the “Free energy of binding ΔG” value is -7.98 ± 0.02 kcal/mol and the “No. of sites n” value is given as 0.98 ± 0.04. Further, the TΔS in assay [2] worked out at 0.47 ± 0.07 kcal/mol. Further, in assay [3], the affinity, expressed as Ki, was 23 nM and the Mechanism entry was “Competitive”. Besides, in assay [3] (pH 7.0), the Ks is listed as 8.0 ± 0.5 µM and the catalytic constant (kcat) is 0.01 ± 0.00017 s⁻¹.
Take `O=c1[nH]c(Cl)c(CCCCCP(=O)(O)O)c(=O)[nH]1` [JC72, 5-(6-chloro-2,4-dioxo-1,2,3,4-tetrahydropyrimidine-5-yl)-n-pentyl 1-phosphonate]: in assay [2], the Kd came to 3940 ± 10 nM, the “Binding enthalpy ΔH” value was -5.29 ± 0.8 kcal/mol, the “Free energy of binding ΔG” value is -7.49 ± 0.01 kcal/mol and the “No. of sites n” value turned out to be 0.98 ± 0.12. The molecule further had a TΔS in assay [2] of 2.20 ± 0.79 kcal/mol. In assay [3], the affinity corresponds to a Ki of 430 nM, the “increase of the Ki value in comparison to JC33” value is “approximately 20 fold” and the Mechanism entry was “Partial”. In assay [3] (pH 7.0), the Kis turned out to be 9.5 ± 3.5 µM, the Ks is 8.5 ± 0.5 µM, the kcat came to 0.01 ± 0.00017 s⁻¹ and the “k′cat” value came to 0.28 ± 0.09 min⁻¹.

The Kd is the constant that tells how readily two partners part at equilibrium. Broadly, the Ki is the equilibrium dissociation constant of an inhibitor or competing ligand from its target. Low readings indicate tighter binding, high ones weaker binding. The term kcat denotes the maximal rate divided by the concentration of active sites.
